Patent US10125095B2, “Abscisic acid derivative” (NATIONAL UNIVERSITY CORPORATION SHIZUOKA UNIVERSITY, priority 2014, dated 2018)

Assays:
PYL10 = molecular target: T1, PYL10 (Arabidopsis thaliana, UniProt Q8H1R0); assay: Protein dephosphorylation enzyme activity test, PYL10; assay type: biochemical, thale cress; conditions: control = 100%
T1 construct: 6xHis (N); made in house; host or cells: Escherichia coli BL21-codonplus(DE3)-RIPL (PYL); BL21(DE3)pLysS (HAB1)
T1 sequence (Q8H1R0 1-183): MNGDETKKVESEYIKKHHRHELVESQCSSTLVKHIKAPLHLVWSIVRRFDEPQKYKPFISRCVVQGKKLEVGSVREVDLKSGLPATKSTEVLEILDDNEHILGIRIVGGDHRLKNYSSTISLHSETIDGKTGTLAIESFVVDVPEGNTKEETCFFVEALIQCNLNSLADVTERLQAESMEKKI
Protocol: (§1) A plasmid (pGex-2T-GST-HAB1 or pET28-6×His-PYL) encoded with PYR/PYL/RCAR proteins (PYL, abscisic acid receptor) or protein dephosphorylation enzyme HAB1 of thale cress was transformed to Escherichia coli (HAB1:BL21(DE3)pLysS, PYL:BL21-codonplus(DE3)-RIPL). Isopropyl-β-thiogalactopyranoside was added to the culture broth, which had been subjected to pre-culture (30° C., 180 rpm, 15 hours) and main culture (30° C., 180 rpm, 4 hours), and the protein-expressed (16° C., 150 rpm, 18 hours) crude enzyme solution was purified using FPLC thereby preparing the recombined PYL (PYR1, PYL1-6, PYL8-10) and HAB1. β-Mercaptoethanol, a manganese chloride aqueous solution, HAB1, PYL, a solution of the sample in dimethylsulfoxide and ultrapure water were sequentially added to a 96-well plate, allowed to stand at 22° C. for 30 minutes. Subsequently p-nitrophenylphosphate, which is the artificial substrate of HAB1, was added thereto to start the reaction, and the plate was placed in a microplate reader (TECAN, Infinite™ N200 NanoQuant). The absorbance at 405 nm due to p-nitrophenol, which is the hydrolysate of p-nitrophenylphosphate, was measured 3 minutes later from the reaction initiation, and HAB1 activity was calculated by the following formula (2). Note that the fraction to which only dimethylsulfoxide was added was considered to be the control and the activity thereof was defined as 100%. […] HAB1 specific activity (%)=Absorbance when sample was added/Absorbance of control×100 (2)

recombined PYL5 = molecular target: T2, recombined PYL5 (Arabidopsis thaliana, UniProt Q9FLB1); assay: Bonding affinity measurement using an isothermal titration calorimeter; assay type: binding, thale cress; conditions: ITC, 20° C., sodium phosphate buffer
T2 construct: 6xHis (N); made in house; host or cells: Escherichia coli BL21-codonplus(DE3)-RIPL
T2 sequence (Q9FLB1 1-203): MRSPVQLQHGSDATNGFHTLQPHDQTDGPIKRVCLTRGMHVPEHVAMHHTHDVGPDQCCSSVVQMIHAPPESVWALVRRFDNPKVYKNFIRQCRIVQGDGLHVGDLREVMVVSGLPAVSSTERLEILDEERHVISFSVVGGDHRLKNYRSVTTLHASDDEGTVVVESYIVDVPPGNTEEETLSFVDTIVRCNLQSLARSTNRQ
Protocol: A sodium phosphate buffer solution of a recombined PYL5 was prepared in the same procedure as in Test Example 5, and put in a reaction cell of an isothermal titration calorimeter (GE Healthcare, MicroCal iTC200), and a sodium phosphate buffer solution of the compound of Example 1 was put in the syringe. Then, the calorimeter was set to 20° C. and the measurement was carded out. The same measurement as above was also carried out for the compounds of Examples 7 to 9.

PYR1 = molecular target: T3, PYR1 (Arabidopsis thaliana, UniProt O49686); assay: Protein dephosphorylation enzyme activity test, PYR1; assay type: biochemical, thale cress; conditions: control = 100%
T3 construct: 6xHis (N); made in house; host or cells: Escherichia coli BL21-codonplus(DE3)-RIPL (PYL); BL21(DE3)pLysS (HAB1)
T3 sequence (O49686 1-191): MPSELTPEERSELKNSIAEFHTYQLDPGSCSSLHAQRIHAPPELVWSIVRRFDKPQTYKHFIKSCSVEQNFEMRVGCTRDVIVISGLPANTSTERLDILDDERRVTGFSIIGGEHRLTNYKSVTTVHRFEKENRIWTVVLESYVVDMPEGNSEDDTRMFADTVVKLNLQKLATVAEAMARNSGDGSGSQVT
Protocol: as §1

PYL1 = molecular target: T4, PYL1 (Arabidopsis thaliana, UniProt Q8VZS8); assay: Protein dephosphorylation enzyme activity test, PYL1; assay type: biochemical, thale cress; conditions: control = 100%
T4 construct: 6xHis (N); made in house; host or cells: Escherichia coli BL21-codonplus(DE3)-RIPL (PYL); BL21(DE3)pLysS (HAB1)
T4 sequence (Q8VZS8 1-221): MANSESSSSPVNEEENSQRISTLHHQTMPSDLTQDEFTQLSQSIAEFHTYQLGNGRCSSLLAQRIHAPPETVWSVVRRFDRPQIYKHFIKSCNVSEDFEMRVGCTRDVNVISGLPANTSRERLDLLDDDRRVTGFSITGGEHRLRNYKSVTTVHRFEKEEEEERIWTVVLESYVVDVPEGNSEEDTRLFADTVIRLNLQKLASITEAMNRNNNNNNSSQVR
Protocol: as §1

PYL4 = molecular target: T5, PYL4 (Arabidopsis thaliana, UniProt O80920); assay: Protein dephosphorylation enzyme activity test, PYL4; assay type: biochemical, thale cress; conditions: control = 100%
T5 construct: 6xHis (N); made in house; host or cells: Escherichia coli BL21-codonplus(DE3)-RIPL (PYL); BL21(DE3)pLysS (HAB1)
T5 sequence (O80920 1-207): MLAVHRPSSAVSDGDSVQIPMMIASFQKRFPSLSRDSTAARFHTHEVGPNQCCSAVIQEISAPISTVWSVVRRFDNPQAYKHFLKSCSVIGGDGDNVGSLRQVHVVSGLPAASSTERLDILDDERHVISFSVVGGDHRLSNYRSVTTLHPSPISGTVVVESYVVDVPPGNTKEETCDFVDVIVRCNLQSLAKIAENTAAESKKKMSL
Protocol: as §1

Row | Compound | HAB1 Specific activity (%) PYL10 (PYL10; ABA + compound) | HAB1 Specific activity (%) PYL10 (PYL10; sample alone) | Kd (recombined PYL5) | ΔG (recombined PYL5) | ΔH (recombined PYL5) | −TΔS (recombined PYL5) | HAB1 Specific activity (%) PYR1 (PYR1; ABA + compound) | HAB1 Specific activity (%) PYR1 (PYR1; sample alone) | HAB1 Specific activity (%) PYL1 (PYL1; ABA + compound) | HAB1 Specific activity (%) PYL1 (PYL1; sample alone) | HAB1 Specific activity (%) PYL4 (PYL4; ABA + compound) | HAB1 Specific activity (%) PYL4 (PYL4; sample alone)
1 | CC1=C[C@@H](OCC#Cc2ccc(C)cc2)CC(C)(C)[C@@]1(O)/C=C/C(C)=C\C(=O)O [Example 7] | 82.5% | 99.0% | 70 ± 20 nM | -9.6 ± 0.2 kcal/mol | -5.5 ± 0.1 kcal/mol | -4.2 kcal/mol | 62.6% | 95.7% | 87.7% | 136% | 101% | 119%
2 | CC1=CC(=O)CC(C)(C)[C@@]1(O)/C=C/C(C)=C\C(=O)O [ABA, abscisic acid] | – | 16.2% | 880 ± 110 nM | -8.1 ± 0.1 kcal/mol | -7.8 ± 0.1 kcal/mol | -0.3 kcal/mol | – | 18.6% | – | 18.6% | – | 18.2%
3 | CC1=C[C@@H](OCC#Cc2ccccc2)CC(C)(C)[C@@]1(O)/C=C/C(C)=C\C(=O)O [Example 1, (2Z,4E)-5-((1S,4S)-1-hydroxy-2,6,6-trimethyl-4-((3-phenylprop-2-yn-1-yl)oxy)cyclohex-2-en-1-yl)-3-methylpenta-2,4-dienoic acid] | 90.7% | 93.7% | 70 ± 20 nM | -9.6 ± 0.1 kcal/mol | -7.9 ± 0.1 kcal/mol | -1.7 kcal/mol | 49% | 99.6% | 55.6% | 98.1% | – | 108%
